Measured values reported in patent US9073940B2, “Tricyclic pyrazol amine derivatives” (MERCK SERONO SA, priority 2009, dated 2015).
Counter-ions that a name gives are not always drawn.

What was measured:
[1] = system: AKT phosphorylation (p-AKT Ser 473) in Ramos B-lymphocyte cell line; assay: Mechanistic on-target cell assay: flow cytometry of AKT phosphorylation after anti-human IGM stimulation; type: cell-based
Protocol: Mechanistic-On Target Cell Assay
The reaction was stopped by fixing the cells with Paraformaldehyde 4% (final) for 10 minutes at room temperature. Cells were washed once with Phosphate Buffer Saline (PBS), permabilized in PBS-Triton X-100 0.2% for 15 minutes at room temperature washed twice with PBS and once with PBS-4% serum. […] Cells were washed twice in PBS and resuspended in PBS. The cell suspension was passed on a FC500 flow cytometer (Beckman Coulter), gating on the IGM positive cells and measuring the AKT phosphorylation.

[2] = system: 4 PI3K isoforms (Human recombinant GST-PI3K); assay: PI3K scintillation proximity assay, best IC50 obtained with the four isoforms (alpha, beta, delta, gamma); type: biochemical; conditions: best IC50 obtained with the four isoforms of PI3K; read-out: Best potency measured on the 4 PI3K isoforms

Compound	IC50 [1]	IC50 [2]
3-(morpholin-4-ylcarbonyl)-1-[1-(2-morpholin-4-ylethyl)piperidin-3-yl]-1,4-dihydrothiochromeno[4,3-c]pyrazole 5,5-dioxide [Example 345]	68 nM	16 nM
COCCN1CCC[C@H](n2nc(C(=O)N3CCOCC3)c3c2-c2ccccc2S(=O)(=O)C3)C1 (single isomer, unassigned) [Example 346, 1-[1-(2-methoxyethyl)piperidin-3-yl]-3-(morpholin-4-ylcarbonyl)-1,4-dihydrothiochromeno[4,3-c]pyrazole 5,5-dioxide]	128 nM	40 nM
O=C(c1nn([C@H]2CCCN(CCN3CCOCC3)C2)c2c1CS(=O)(=O)c1c(F)cccc1-2)N1CCOCC1 (single isomer, unassigned) [Example 350, 6-fluoro-3-(morpholin-4-ylcarbonyl)-1-[1-(2-morpholin-4-ylethyl)piperidin-3-yl]-1,4-dihydrothiochromeno[4,3-c]pyrazole 5,5-dioxide hydrochloride salt]	40 nM	16 nM
O=C(c1nn([C@H]2CCN(C3CCOCC3)C2)c2c1CS(=O)(=O)c1c(F)cccc1-2)N1CCOCC1 (single isomer, unassigned) [Example 355, 6-fluoro-3-(morpholin-4-ylcarbonyl)-1-[1-(tetrahydro-2H-pyran-4-yl)pyrrolidin-3-yl]-1,4-dihydrothiochromeno[4,3-c]pyrazole 5,5-dioxide hydrochloride salt]	94 nM	52 nM
O=C(c1nn([C@@H]2CCCN(C3CCOCC3)CC2)c2c1CS(=O)(=O)c1ccccc1-2)N1CCOCC1 (single isomer, unassigned) [Example 400]	888 nM	104 nM
O=C(c1nn([C@H]2CCCN(C3CCOCC3)CC2)c2c1CS(=O)(=O)c1ccccc1-2)N1CCOCC1 (single isomer, unassigned) [Example 401]	3630 nM	340 nM
CC(C)(C)OC(=O)N1CCC(Cn2nc(C(=O)N3CCOCC3)c3c2-c2ccccc2S(=O)(=O)C3)CC1 [Example 43, tert-butyl 4-{[3-(morpholin-4-ylcarbonyl)-5,5-dioxidothiochromeno[4,3-c]pyrazol-1(4H)-yl]methyl}piperidine-1-carboxylate]	534 nM	–
O=C(c1nn(-c2ccc(CN3CCOCC3)cc2)c2c1CS(=O)(=O)c1ccccc1-2)N1CCOCC1 [Example 137]	300 nM	–
O=C(c1nn([C@H]2CCCN(CCF)C2)c2c1CS(=O)(=O)c1ncccc1-2)N1CCOCC1 [Example 380]	320 nM	–
O=C(c1nn(C2CCCN(CCC3CCOCC3)C2)c2c1CS(=O)(=O)c1ncccc1-2)N1CCOCC1 (stereo not drawn) [Example 408]	–	61 nM
O=C(c1nn(C2CCCN(CCN3CCOCC3)C2)c2c1CS(=O)(=O)c1c(F)cccc1-2)N1CCOCC1 (stereo not drawn) [Example 413, 6-fluoro-3-(morpholin-4-ylcarbonyl)-1-[1-(2-morpholin-4-ylethyl)piperidin-3-yl]-1,4-dihydrothiochromeno[4,3-c]pyrazole 5,5-dioxide]	–	16 nM
O=C(c1nn(C2CCCN(CCN3CC(F)(F)C3)C2)c2c1CS(=O)(=O)c1c(F)cccc1-2)N1CCOCC1 (stereo not drawn) [Example 414, 1-{1-[2-(3,3-Difluoroazetidin-1-yl)ethyl]piperidin-3-yl}-6-fluoro-3-(morpholin-4-ylcarbonyl)-1,4-dihydrothiochromeno[4,3-c]pyrazole 5,5-dioxide]	–	38 nM
O=C(c1nn(C2CCCN(C3COC3)C2)c2c1CS(=O)(=O)c1ccccc1-2)N1CCOCC1 (stereo not drawn) [Example 415, 3-(Morpholin-4-ylcarbonyl)-1-(1-oxetan-3-ylpiperidin-3-yl)-1,4-dihydrothiochromeno[4,3-c]pyrazole 5,5-dioxide]	–	67 nM
COCCN(C)Cc1ccc(-n2nc(C(=O)N3CCOCC3)c3c2-c2ccccc2S(=O)(=O)C3)cc1 [Example 426, 2-Methoxy-N-methyl-N-{4-[3-(morpholin-4-ylcarbonyl)-5,5-dioxidothiochromeno[4,3-c]pyrazol-1(4H)-yl]benzyl}ethanamine]	–	113 nM
O=C(c1nn(-c2ccc(CN3CC(F)C3)cc2)c2c1CS(=O)(=O)c1ccccc1-2)N1CCOCC1 [Example 430, 1-{4-[(3-Fluoroazetidin-1-yl)methyl]phenyl}-3-(morpholin-4-ylcarbonyl)-1,4-dihydrothiochromeno[4,3-c]pyrazole 5,5-dioxide]	–	229 nM
COCCNCc1ccc(-n2nc(C(=O)N3CCOCC3)c3c2-c2ccccc2S(=O)(=O)C3)cc1 [Example 431, 2-Methoxy-N-{4-[3-(morpholin-4-ylcarbonyl)-5,5-dioxidothiochromeno[4,3-c]pyrazol-1(4H)-yl]benzyl}ethanamine]	–	164 nM
CC1CN(Cc2ccc(-n3nc(C(=O)N4CCOCC4)c4c3-c3ccccc3S(=O)(=O)C4)cc2)CCO1 (stereo not drawn) [Example 432, 1-{4-[(2-Methylmorpholin-4-yl)methyl]phenyl}-3-(morpholin-4-ylcarbonyl)-1,4-dihydrothiochromeno[4,3-c]pyrazole 5,5-dioxide]	–	105 nM

Compound	IC50 [1]	IC50 [2]
CC1CN(Cc2ccc(-n3nc(C(=O)N4CCOCC4)c4c3-c3ccccc3S(=O)(=O)C4)cc2)CC(C)O1 (stereo not drawn) [Example 435, 1-{4-[(2,6-Dimethylmorpholin-4-yl)methyl]phenyl}-3-(morpholin-4-ylcarbonyl)-1,4-dihydrothiochromeno[4,3-c]pyrazole 5,5-dioxide]	–	57 nM
O=C(c1nn(-c2ccc(CNC3CCOCC3)cc2)c2c1CS(=O)(=O)c1ccccc1-2)N1CCOCC1 [Example 436, N-{4-[3-(Morpholin-4-ylcarbonyl)-5,5-dioxidothiochromeno[4,3-c]pyrazol-1 (4H)-yl]benzyl}tetrahydro-2H-pyran-4-amine]	–	107 nM
CC1(C)CN(Cc2ccc(-n3nc(C(=O)N4CCOCC4)c4c3-c3ccccc3S(=O)(=O)C4)cc2)CCO1 [Example 437, 1-{4-[(2,2-Dimethylmorpholin-4-yl)methyl]phenyl}-3-(morpholin-4-ylcarbonyl)-1,4-dihydrothiochromeno[4,3-c]pyrazole 5,5-dioxide]	–	120 nM
CNCc1ccc(-n2nc(C(=O)N3CCOCC3)c3c2-c2ccccc2S(=O)(=O)C3)cc1 [Example 449, N-Methyl-1-{4-[3-(morpholin-4-ylcarbonyl)-5,5-dioxidothiochromeno[4,3-c]pyrazol-1 (4H)-yl]phenyl}methanamine]	–	226 nM
COc1ccc2c(c1)-c1c(c(C(=O)N3CCOCC3)nn1C1CCCN(CCN3CCOCC3)C1)CS2(=O)=O (stereo not drawn) [Example 453, 8-methoxy-3-(morpholin-4-ylcarbonyl)-1-[1-(2-morpholin-4-ylethyl)piperidin-3-yl]-1,4-dihydrothiochromeno[4,3-c]pyrazole 5,5-dioxide]	–	28 nM
O=C(c1nn(-c2ccc(CNC3CCCOC3)cc2)c2c1CS(=O)(=O)c1ccccc1-2)N1CCOCC1 (stereo not drawn) [Example 455, N-{4-[3-(Morpholin-4-ylcarbonyl)-5,5-dioxidothiochromeno[4,3-c]pyrazol-1(4H)-yl]benzyl}tetrahydro-2H-pyran-3-amine]	–	224 nM
O=C(c1nn(-c2ccc(CNC3CCOC3)cc2)c2c1CS(=O)(=O)c1ccccc1-2)N1CCOCC1 (stereo not drawn) [Example 456, N-{4-[3-(Morpholin-4-ylcarbonyl)-5,5-dioxidothiochromeno[4,3-c]pyrazol-1(4H)-yl]benzyl}tetrahydrofuran-3-amine]	–	156 nM
CC(C)(c1ccc(-n2nc(C(=O)N3CCOCC3)c3c2-c2ccccc2S(=O)(=O)C3)cc1)N1CCOCC1 [Example 457, 1-[4-(1-Methyl-1-morpholin-4-ylethyl)phenyl]-3-(morpholin-4-ylcarbonyl)-1,4-dihydrothiochromeno[4,3-c]pyrazole 5,5-dioxide]	–	584 nM
CN(C)CC(C)(C)c1ccc(-n2nc(C(=O)N3CCOCC3)c3c2-c2ccccc2S(=O)(=O)C3)cc1 [Example 458, N,N,2-Trimethyl-2-{4-[3-(morpholin-4-ylcarbonyl)-5,5-dioxidothiochromeno[4,3-c]pyrazol-1(4H)-yl]phenyl}propan-1-amine hydrochloride]	–	159 nM
CC(C)(CN1CCOCC1)c1ccc(-n2nc(C(=O)N3CCOCC3)c3c2-c2ccccc2S(=O)(=O)C3)cc1 [Example 461, 1-[4-(1,1-Dimethyl-2-morpholin-4-ylethyl)phenyl]-3-(morpholin-4-ylcarbonyl)-1,4-dihydrothiochromeno[4,3-c]pyrazole 5,5-dioxide]	–	341 nM
O=C(c1nn(-c2ccc(C3(CN4CCOCC4)CC3)cc2)c2c1CS(=O)(=O)c1ccccc1-2)N1CCOCC1 [Example 462, 3-(Morpholin-4-ylcarbonyl)-1-{4-[1-(morpholin-4-ylmethyl)cyclopropyl]phenyl}-1,4-dihydrothiochromeno[4,3-c]pyrazole 5,5-dioxide]	–	995 nM
O=C(c1nn([C@H]2CCCN(C3CCCNC3)C2)c2c1CS(=O)(=O)c1ccccc1-2)N1CCOCC1 (stereo partly drawn) [Example 469]	–	25 nM
O=C(c1nn(C2CCCNC2)c2c1CS(=O)(=O)c1cc(OC(F)(F)F)ccc1-2)N1CCOCC1 (stereo not drawn) [Example 481, 7-(Trifluoromethoxy)-3-(morpholin-4-ylcarbonyl)-1-piperidin-3-yl-1,4-dihydrothiochromeno[4,3-c]pyrazole 5,5-dioxide]	–	10500 nM
O=C(c1nn(-c2ccccc2)c2c1CS(=O)(=O)c1nccn1-2)N1CCOCC1 [Example 485]	–	477 nM
CN1c2c(C(=O)N3CCOCC3)nn(-c3ccccc3)c2-c2ccccc2S1(=O)=O [Example 488, 4-Methyl-3-(morpholin-4-ylcarbonyl)-1-phenyl-1,4-dihydropyrazolo[4,3-c][1,2]benzothiazine 5,5-dioxide]	–	3460 nM
O=C(c1nn(-c2ccccc2)c2c1NS(=O)(=O)c1ccccc1-2)N1CCOCC1 [Example 489, 3-(Morpholin-4-ylcarbonyl)-1-phenyl-1,4-dihydropyrazolo[4,3-c][1,2]benzothiazine 5,5-dioxide]	–	5500 nM
